From US20040229336A1, “Method for in vitro culture of viruses of the togaviridae and flaviviridae families and uses” (Bio Merieux, priority 1999, published 2004) come the findings set out here.

The subject of data set [1] is HCV. The experiment in a line: Observation in patients infected both with HIV and with HCV taking HIV protease inhibitors. The format is in vivo, human. The text has this: For this reason, it is advantageous to add to the method of the invention at least one apoptosis-modulating agent.
Data set [2] has as its target T1, LSR receptor (Homo sapiens, UniProt Q86X29).
T1 construct: endogenous in cells; host or cells: PLC/PRF/5 human hepatocarcinoma cells
T1 sequence (Q86X29 1-649): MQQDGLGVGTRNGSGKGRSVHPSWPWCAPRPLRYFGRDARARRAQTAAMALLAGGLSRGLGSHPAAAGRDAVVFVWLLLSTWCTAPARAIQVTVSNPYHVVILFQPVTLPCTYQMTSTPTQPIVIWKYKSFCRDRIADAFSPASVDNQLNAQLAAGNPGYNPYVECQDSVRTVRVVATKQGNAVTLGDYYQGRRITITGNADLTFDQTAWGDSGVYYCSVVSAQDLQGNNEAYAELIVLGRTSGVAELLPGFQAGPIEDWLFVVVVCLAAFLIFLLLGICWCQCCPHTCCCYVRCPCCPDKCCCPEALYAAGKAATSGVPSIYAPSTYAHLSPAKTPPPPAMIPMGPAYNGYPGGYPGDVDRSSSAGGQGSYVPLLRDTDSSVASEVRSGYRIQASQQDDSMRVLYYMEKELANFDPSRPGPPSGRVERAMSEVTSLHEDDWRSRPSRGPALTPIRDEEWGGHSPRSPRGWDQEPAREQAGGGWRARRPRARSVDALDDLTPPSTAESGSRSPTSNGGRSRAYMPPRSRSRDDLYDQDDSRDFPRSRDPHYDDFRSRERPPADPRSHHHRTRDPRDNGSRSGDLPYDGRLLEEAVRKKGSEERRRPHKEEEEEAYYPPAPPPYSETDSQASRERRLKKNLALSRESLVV
The data set is described as follows: Kinetics of attachment of the LVPs to the LSR receptor of hepatocytes (PLC/PRF/5 cells), quantitative RT-PCR of HCV RNA. The format is cell-based. Particulars: 0.5 mM oleate vs without oleate, +4° C., 1 to 9 hours. The procedure: A fraction containing LVPs with a density of between 1.025 g/ml and 1.055 g/ml was obtained from an HCV-positive serum as described in example 1.
The amount of proteins present in the LVP fraction was determined by the Lowry method using the “Protein Assay” kit (Sigma Diagnostics) and the viral titer was evaluated by quantification of the HCV RNA by RT-PCR and real-time fluorescence detection (LightCycler™, Roche) (Wittwer et al., Biotechniques, 22: 176-181 (1997)).
The PLC/PRF/5 cell line, described in example 2 and cultured in DMEM medium-10% SVF, was used for studying the attachment of LVPs to the LSR receptor in the presence or absence of oleate.
The results were obtained according to the following protocol:
The PLC/PRF/5 cells were seeded at 1 million cells/well, so as to obtain, after incubation for 24 hours at 37° C., 5% CO2, approximately 80% confluence.
Two washes in cold 1×PBS buffer were carried out, and then 1 ml of cold complete DMEM medium containing 0.2% of BSA is added to the PLC cells maintained on a bed of ice.
The LVP fraction (i.e. 10 mg of proteins and 1.7×10^6 of copies of HCV RNA) is added to the cells in the presence or absence of 0.5 mM oleate. […]
An incubation was carried out at +4° C. for a period of time ranging from 1 to 9 hours. […] The RNAs were then purified using this same kit and analyzed by quantitative RT-PCR (LightCycler™). […]

The subject of data set [3] is hepatitis C virus. The experiment in a line: Infection of PLC/PRF/5 cells with HCV-positive serum or LVP fractions, HCV genome in culture supernatants by semi-nested RT-PCR. The format is cell-based, human. The method, then:
The culture medium used is DMEM medium (marketed by Gibco BRL) supplemented with: 1 mM of sodium pyruvate (Gibco), 1% of nonessential amino acids (Boehringer Mannheim), 2 mM of glutamine (Gibco BRL), 200 U/ml of penicillin (bioMérieux), […] of streptomycin (bioMérieux) and 10% of calf serum (Boehringer).
The cells originate from the PLC/PRF/5 cell line (Alexander cells) (ATCC reference: CRL 8024), which is a line established from a human hepatocarcinoma. This line, which has integrated a defective hepatitis B genome, secretes the HBs antigen of the hepatitis B virus but no infectious virus. The cells are cultured in the complete DMEM medium (Gibco-BRL) supplemented with 10% of foetal calf serum, mentioned above. The cells are washed with PBS (Gibco-BRL) preheated to 37° C. 1 ml of DMEM supplemented with 0.2% of BSA (Sigma) and 50 μg/ml of lipoproteins originating from each fraction or 100 μl of serum filtered over a 0.45μ membrane are added. Simultaneously, a solution of oleic acid in isopropanol, prepared beforehand (100 mM), is added in a concentration range of 0.1 to 0.8 mM. The cells are then subjected to incubation for 3 hours at 37° C. under a 5% CO2 atmosphere. The medium is then replaced with complete DMEM medium supplemented with 10% of foetal calf serum. The cells are returned to the incubator under the conditions described above. […]

Regarding `CC(C)c1nc(CN(C)C(=O)N[C@H](C(=O)N[C@@H](Cc2ccccc2)C[C@H](O)[C@H](Cc2ccccc2)NC(=O)OCc2cncs2)C(C)C)cs1` [Ritonavir], in data set [1], the “HCV viremia and hepatic cytolysis” value is listed as “increase in the HCV virema associated with hepatic cytolysis”.

Turning to `CCCCCCCC/C=C\CCCCCCCC(=O)O` [oleic acid], in data set [2], the “attachment of the LVPs to the LSR receptor (number of HCV RNA copies)” value is listed as “significantly increased”. In addition, in data set [3] (LVP fractions with densities <1.0063, 1.0063-1.063 and >1.063 g/ml), the “pathway for endocytosis of the LVPs at the time of the infection” value is “facilitates the pathway for endocytosis of the LVPs”. The “presence of the HCV genome in the culture supernatants” value in data set [3] (infection with 100 μl of serum of patients no. 1 and no. 2, with vs without 0.5 mM oleic acid) is “detected at a higher frequency”.
